Columns and labels:
Assay in all cases: UPLC rhamnosylation assay, Michaelis-Menten fit
Conditions in all cases: 0.1 mM UDP-rhamnose as co-substrate; pH 7.5, 37 °C
CiRhaT-JX4x (UGT79A21) = test system: T1, CiRhaT-JX4x (UGT79A21); assay type: biochemical, Chrysanthemum indicum
T1 construct: full-length, 469 aa, MBP fusion (pMAL-c5X, tag removal not mentioned), E. coli Rosetta (DE3)

CnRhaT-HB2x (UGT79A23) = test system: T2, CnRhaT-HB2x (UGT79A23); assay type: biochemical, Chrysanthemum nankingense
T2 construct: full-length, 469 aa, MBP fusion (pMAL-c5X, tag removal not mentioned), E. coli Rosetta (DE3)

CiRhaT-GD4x (UGT79A20) = test system: T3, CiRhaT-GD4x (UGT79A20); assay type: biochemical, Chrysanthemum indicum
T3 construct: full-length, 469 aa, MBP fusion (pMAL-c5X, tag removal not mentioned), E. coli Rosetta (DE3)

CiRhaT-HB2x (UGT79A22) = test system: T4, CiRhaT-HB2x (UGT79A22); assay type: biochemical, Chrysanthemum indicum
T4 construct: full-length, 469 aa, MBP fusion (pMAL-c5X, tag removal not mentioned), E. coli Rosetta (DE3)

Row | Structure (SMILES) | Km (CiRhaT-JX4x (UGT79A21)) [µM] | Km (CnRhaT-HB2x (UGT79A23)) [µM] | Km (CiRhaT-GD4x (UGT79A20)) [µM] | Km (CiRhaT-HB2x (UGT79A22)) [µM]
1 | COc1ccc(-c2cc(=O)c3c(O)cc(O[C@@H]4O[C@H](CO)[C@@H](O)[C@H](O)[C@H]4O)cc3o2)cc1 [compound 1, acacetin-7-O-glucoside] | 8.27 ± 0.984 | 9.45 ± 1.5 | 14.2 ± 1.36 | 8.71 ± 1.79
2 | O=c1cc(-c2ccc(O)cc2)oc2cc(O[C@@H]3O[C@H](CO)[C@@H](O)[C@H](O)[C@H]3O)cc(O)c12 [compound 2, apigenin-7-O-glucoside] | 45.3 ± 6.08 | 140 ± 32.1 | 32.4 ± 5.9 | 57.1 ± 5.34
3 | COc1ccc(-c2cc(=O)c3c(O)cc(O[C@@H]4O[C@H](CO)[C@@H](O)[C@H](O)[C@H]4O)cc3o2)cc1O [compound 3, diosmetin-7-O-glucoside] | 7.67 ± 0.809 | 17.7 ± 2.82 | 12.9 ± 1.27 | 9.35 ± 1.38
